We go through six compounds from patent publication US20080199503A1, “Pharmaceutical Compositions Preparation of Peptides, Secreted by the Snake Venom Glands, Particularly of Bothrops Jararaca, Vasopeptidases Inhibitors, Evasins, Their Analogues, Derivatives and Products Associated, Thereof, for Development of Applications and Use in Chronic-Degenerative Diseases” (priority 2002, published 2008).

Read-outs that look alike come from different tables or passages of the source. Square brackets hold non-standard residues; d marks the D form. Peptide text beside a SMILES is read from it. pGlu = O=C1CC[C@@H](C(=O)O)N1

Data set [1] addresses neutral endopeptidase (recombinant NEP) (Homo sapiens, UniProt P08473). Description: Fluorometric assay of recombinant NEP inhibition. Format: biochemical. On the procedure: The fluorometric assays for the recombinant NEP inhibition were conducted using the substrate Abz-RL-EDDnp in a 50 mM Tris-HCl buffer, pH 7.5, at 37° C. […] The Evasins were pre-incubated with the enzyme before the substrate addition.
The inhibition constants (Ki) values were determined by means of the ratio of the apparent inhibition constant (Ki(app)) and the substrate Km (Salvesen and Nagase, 1990). In: Proteolytic enzymes a practical aproach, Beynon and Bond Eds Oxford University Press, England, 87-88).

Data set [2] deals with anesthetized normotensive rats (WKY) blood pressure. Briefly: Potentiation of the bradykinin hypotensive effect on anesthetized rat blood pressure. The class given is in vivo. The conditions noted are these: for Bk potentiation(%): hypotension increase of a single bradykinin dose after 200 nmol of potentiator i.v., anesthetized rats; for Duration time: time to reduce the potentiating effect by 50%, 200 nmol/rat i.v., unit not given, minutes. On the procedure: The potentiating activity of the bradykinin hypotensive effect was tested in anesthetized rats. Normotensive male rats (WKY) were anesthetized using pentobarbital sodium (Hypnol® Cristália, 50 mg/kg, intraperitoneal) and placed on a controlled-temperature board for maintaining the body temperature between 36.5° C. and 37° C. A polygraph coupled to a physiological transducer was used. The blood pressure ranging values were obtained by integrating the areas limited by the baseline pressure and comparing them to the values obtained from control assays. In in vivo assays, the potentiating activity of Evasins on the hypotensive effect of bradykinin on anesthetized rat blood pressure was observed. Two parameters were determined for comparison of the potentiating effects of bradykinin on the anesthetized rat blood pressure (n=5):
1) Intensity of the potentiating effect of the hypotensive activity of bradykinin on the anesthetized rats blood pressure: This value was defined as the hypotension percentage (%) increase caused by a single dose of bradykinin obtained after the infusion of 200 nmol of potentiator. 2) Potentiating effect length: Time required to reduce the potentiating effect on a single dose of bradykinin by 50%.

Data set [3] addresses N-terminal catalytic site of the Angiotensin I converting enzyme (recombinant ACE) (Homo sapiens, UniProt P12821). Briefly: Inhibition of the N-terminal catalytic site of recombinant ACE (fluorogenic substrate). The class given is biochemical. The procedure: (§1) The fractions from purification were submitted to mass spectrometry analysis to conforming the Evasins molar mass after purification. • The enzyme assays for the recombinant ACE inhibition were conducted using the substrate Mca-Ala-Ser-Asp-Lys-DpaOH, at 25° C., in a 50 mM Hepes buffer (pH 6.8), 200 mM NaCl and […] ZnCl2.

Data set [4] relates to non anesthetized hypertensive rat blood pressure. Briefly: Blood pressure of non anesthetized hypertensive rat, i.v. bolus of Evasin. Format: in vivo. The conditions noted are these: 70 nmol/100 g of body weight, non-anesthetized hypertensive rats. An excerpt:
One day before the assay, the animals were subjected to a surgery for cannulation of the femoral artery and vein. The rats were anesthetized with ether and placed in dorsal decubitus on a surgical board. A small skin incision was made, thus separating the musculature for locating the femoral vasculonervous bunch. […] After insertion, the cannulas were tied to the bunch using a surgical line. Next, the cannulas were directed subcutaneously with the aid of a trocater to the scapular waist where they were exteriorized and secured using a suture line. The arterial cannula was used for recording the cardiovascular parameters and the venous cannula for administering the drugs.
The blood pressure and the heart rate were recorded one day after the femoral artery and vein cannulation. The assay was conducted with non-anesthetized animals with free movement. The rats pulsed arterial pressure (PAP), the mean arterial pressure (MAP) and heart rate (HR) were monitored by a computer, using a data acquisition system (BIOPAC). The data were collected during all the experiments.
Before the drug administration, the rats PBP, MBP and HR were monitored. After the bolus injection of Evasin in a total volume of 0.2 mL (NaCl 0.9% solution), the resulting hypotensive effect and the effect length were monitored. In this assay, standard doses of each peptide (70 nmol/100 g of body weight) were tested (n=4). […] Evasin-5a and the Evasin-7a produced a maximum MBP reduction of −19.17±4.36 mmHg and 13.00±2.78 mmHg respectively.

In data set [5] the target is C-terminal catalytic site of the Angiotensin I converting enzyme (recombinant ACE) (Homo sapiens, UniProt P12821). Description: Inhibition of the C-terminal catalytic site of recombinant ACE (fluorogenic substrate). Format: biochemical. The procedure:
as §1

The conditions of data set [6]: cited from earlier work.
The conditions of data set [7]: in vivo; cited from earlier work.
For data set [8], the system named is rostro-ventrolateral medulla of freely moving rats. The conditions noted are these: free (not encapsulated), 25 to 50 ng; cited from earlier work.
For data set [9], the system named is SHR and TGR(mREN2)L27 hypertensive rats blood pressure. Description: Infusion of Evasin 5a in awake hypertensive rats of different strain. The conditions noted are these: for decrease of the MAP: infusion 900 μg/100 g corporal weight/hour. The class given is in vivo, rat. From the text: (§2) One day before the assay, the animals were subjected to a surgery for cannulation of the femoral artery and vein. The rats were anesthetized with ether and placed in dorsal decubitus on a surgical board. A small skin incision was made, thus separating the musculature for locating the femoral vasculonervous bunch. […] After insertion, the cannulas were tied to the bunch using a surgical line. Next, the cannulas were directed subcutaneously with the aid of a trocater to the scapular waist where they were exteriorized and secured using a suture line.
(§3) The blood pressure and the heart rate were recorded one day after the femoral artery and vein cannulation. The assay was conducted with non-anesthetized animals with free movement. The animals pulsed arterial pressure (PAP), the mean arterial pressure (MAP) and heart rate (HR) were monitored by a computer, using a data acquisition system (BIOPAC). The data were collected during all the experiments.
Before the drug administration, the rats PBP, MBP and HR were monitored during 60 minutes. During and after the infusion of the Evasin 5a, 900 μg/100 g corporal weight/hour in NaCl solution 0.9% (n=6), the cardiovascular parameters were registered. The administration of the evasin-5a in both strains produced the same decreased of the MAP 28±2.7 mmHg and 34±0.9 mmHg in the SHR and TGR (mREN2) L27 respectively. However, it was observed that the relevant difference in time duration effect after the infusion interruption was over 6 hours in the SHR and only 1 hour in the TGRs. These differences indicate important variations of the biochemical mechanisms of the Evasins 5a action with different degree for the renin angiotensin system activation.

Data set [10] has as its system awake hypertensive rat blood pressure. Description: Blood pressure of awake hypertensive rat, free versus cyclodextrin-encapsulated Evasin. The conditions noted are these: bolus injection, 0.071 nmol/100 g of body weight, awake hypertensive rats. Format: in vivo.
Description: as §2, with “This example describes the inclusion compound administration effect between the Evasin-5a and hydroxiprolil-[…]-cyclodextrina BPβCD) on the blood pressure of the hypertensive rats. One” for “One”
as §3
Before the drug administration, the rats PBP, MBP and HR were monitored during 60 minutes. After the bolus injection of Evasin in a total volume of 0.2 mL (NaCl 0.9% solution), the resulting hypotensive effect and the effect length were monitored. […]

[11] abbreviates: recombinant NEP, substrate Abz-RL-EDDnp, pH 7.5, 37° C., read-out: NEP - Ki.
[12] abbreviates: recombinant ACE, substrate Mca-Ala-Ser-Asp-Lys-DpaOH, 25° C., pH 6.8, read-out: ECA - Ki, N-terminal.
Setting [13] is: recombinant ACE, substrate Mca-Ala-Ser-Asp-Lys-DpaOH, 25° C., pH 6.8, read-out: ECA - Ki, C-terminal.

Chain of neutral endopeptidase (recombinant NEP) (P08473 whole entry, species assumed): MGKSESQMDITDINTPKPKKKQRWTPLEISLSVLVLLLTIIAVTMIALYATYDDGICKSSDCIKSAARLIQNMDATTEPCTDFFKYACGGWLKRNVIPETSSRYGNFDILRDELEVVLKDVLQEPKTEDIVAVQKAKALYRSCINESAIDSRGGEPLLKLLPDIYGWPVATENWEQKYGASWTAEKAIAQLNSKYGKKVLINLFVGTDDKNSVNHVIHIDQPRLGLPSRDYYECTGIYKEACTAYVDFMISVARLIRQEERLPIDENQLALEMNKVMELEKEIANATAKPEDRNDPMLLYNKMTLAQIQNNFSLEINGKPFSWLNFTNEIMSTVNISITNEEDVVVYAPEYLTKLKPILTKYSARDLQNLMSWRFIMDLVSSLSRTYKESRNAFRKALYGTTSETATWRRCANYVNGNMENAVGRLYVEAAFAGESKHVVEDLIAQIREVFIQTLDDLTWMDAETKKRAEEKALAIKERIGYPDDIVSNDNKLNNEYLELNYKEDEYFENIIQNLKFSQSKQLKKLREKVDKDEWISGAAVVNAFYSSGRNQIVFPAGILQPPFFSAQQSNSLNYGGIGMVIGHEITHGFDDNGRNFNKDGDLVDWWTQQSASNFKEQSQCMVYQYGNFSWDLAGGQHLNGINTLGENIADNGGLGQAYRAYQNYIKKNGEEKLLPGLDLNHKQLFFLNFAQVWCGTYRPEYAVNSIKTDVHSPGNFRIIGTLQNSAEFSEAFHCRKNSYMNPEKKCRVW
Chain of N-terminal catalytic site of the Angiotensin I converting enzyme (recombinant ACE) (P12821 40-624 limits assumed, species assumed): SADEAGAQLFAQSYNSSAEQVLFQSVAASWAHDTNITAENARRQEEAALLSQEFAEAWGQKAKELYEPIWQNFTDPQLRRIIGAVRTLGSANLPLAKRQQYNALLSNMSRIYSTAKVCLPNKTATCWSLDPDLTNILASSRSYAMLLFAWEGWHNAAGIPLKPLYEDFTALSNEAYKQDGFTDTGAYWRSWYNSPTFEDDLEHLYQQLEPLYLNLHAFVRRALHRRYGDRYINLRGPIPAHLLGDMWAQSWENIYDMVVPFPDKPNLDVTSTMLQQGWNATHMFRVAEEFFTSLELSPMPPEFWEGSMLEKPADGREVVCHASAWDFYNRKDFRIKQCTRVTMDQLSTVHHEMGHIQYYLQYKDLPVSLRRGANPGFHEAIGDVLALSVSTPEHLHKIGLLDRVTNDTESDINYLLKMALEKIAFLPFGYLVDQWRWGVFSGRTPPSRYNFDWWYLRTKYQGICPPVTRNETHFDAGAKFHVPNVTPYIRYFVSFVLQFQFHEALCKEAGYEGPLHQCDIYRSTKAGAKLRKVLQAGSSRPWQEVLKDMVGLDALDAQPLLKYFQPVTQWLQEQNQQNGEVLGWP
Chain of C-terminal catalytic site of the Angiotensin I converting enzyme (recombinant ACE) (P12821 643-1222 limits assumed, species assumed): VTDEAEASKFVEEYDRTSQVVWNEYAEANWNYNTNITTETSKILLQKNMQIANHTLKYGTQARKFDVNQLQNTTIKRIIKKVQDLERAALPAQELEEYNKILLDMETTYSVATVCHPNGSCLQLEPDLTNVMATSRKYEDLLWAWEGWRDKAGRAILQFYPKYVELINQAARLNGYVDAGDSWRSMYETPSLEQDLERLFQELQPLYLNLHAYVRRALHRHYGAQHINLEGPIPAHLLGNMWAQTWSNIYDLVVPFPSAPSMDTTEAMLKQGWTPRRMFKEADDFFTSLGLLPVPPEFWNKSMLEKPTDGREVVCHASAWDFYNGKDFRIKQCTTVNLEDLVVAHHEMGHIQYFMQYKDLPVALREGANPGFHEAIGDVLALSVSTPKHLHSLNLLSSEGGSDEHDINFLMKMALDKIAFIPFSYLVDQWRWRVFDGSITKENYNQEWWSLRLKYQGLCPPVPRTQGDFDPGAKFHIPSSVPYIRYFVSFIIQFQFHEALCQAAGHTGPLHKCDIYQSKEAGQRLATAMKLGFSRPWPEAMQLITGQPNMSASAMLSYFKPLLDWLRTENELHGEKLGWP

For the compound `CC[C@H](C)[C@H](NC(=O)[C@H](CCC(N)=O)NC(=O)[C@@H]1CCCN1C(=O)[C@H](Cc1c[nH]cn1)NC(=O)[C@@H]1CCCN1C(=O)[C@H](Cc1c[nH]c2ccccc12)NC(=O)[C@H](CC(N)=O)NC(=O)[C@@H]1CCC(=O)N1)C(=O)N1CCC[C@H]1C(=O)N1CCC[C@H]1C(=O)O` [EVASIN-10c, <ENWPHPQIPP] ([pGlu]NWPHPQIPP-OH; C-terminus assumed), the Ki in data set [1] came out at 253 µM. Besides, in [2], the “Bk potentiation(%)” value is recorded as 195% and the Duration time is 95. For the same compound, the inhibitory constant (Ki) in data set [3] amounted to 200 nM. Further, in [4], the hypotensive effect length was found to be 94 min and the “reduction in the mean blood pressure (maximum)” value (shortened to “reduction … (maximum)”) was −29.5±9.50 mmHg. Moreover, in data set [5], the Ki came to 0.5 nM. In addition, the “selectivity for the C-terminal site” value in data set [5] (C-terminal versus N-terminal site of ACE) came to 400 times.
Regarding `CC[C@H](C)[C@H](NC(=O)[C@H](CCC(N)=O)NC(=O)[C@@H]1CCCN1C(=O)[C@H](CCCNC(=N)N)NC(=O)[C@@H]1CCCN1C(=O)[C@H](Cc1c[nH]c2ccccc12)NC(=O)[C@@H]1CCC(=O)N1)C(=O)N1CCC[C@H]1C(=O)N1CCC[C@H]1C(=O)O` [EVASIN-9a, <EWPRPQIPP], the Ki in data set [1] (setting [11]) is 86 µM; in [3] (setting [12]) it was 100 nM; in data set [5] (setting [13]), 1 nM. The same compound had a hypotensive effect length in data set [4] of 84 min. Further, in data set [4], the “reduction … (maximum)” value was −27.0±1.50 mmHg. The “antihypertensive activity, intravenously” value in data set [6] (administered intravenously) is “has an antihypertensive activity”. Besides, the “antihypertensive activity, orally” value in data set [6] (given orally) was “inactive”.
Regarding `C[C@H](CS)C(=O)N1CCC[C@H]1C(=O)O` [Captopril], the “drug absorption time when administered alone” value in data set [7] was 1 h.
“Ang-(1-7) (DRVYIHP; Angiotensin 1-7; UniProt P01019 25-31, looked up) [free Ang-(1-7), angiotensinergic peptide, not encapsulated]”: in data set [8], the “duration of the increase” value is listed as “approximately 10 min” and the “increase of blood pressure” value is 15 mmHg.
Consider `C[C@H](NC(=O)[C@H](Cc1c[nH]c2ccccc12)NC(=O)[C@H](CCCCN)NC(=O)[C@@H]1CCC(=O)N1)C(=O)N1CCC[C@H]1C(=O)O` [EVASIN-5a, <EKWAP] ([pGlu]KWAP-OH; C-terminus assumed), for which the inhibition constant Ki in data set [1] (setting [11]) was 550 µM. For the same compound, in data set [9] (SHR), the “time duration of effect after the infusion interruption” value is listed as “over 6 hours” and the “decrease of the MAP” value stood at 28±2.7 mmHg. For the same compound, in data set [9] (TGR (mREN2) L27), the “decrease of the MAP” value is listed as 34±0.9 mmHg. The “time duration of effect after the infusion interruption” value in data set [9] (TGRs) was found to be 1 h. In addition, in data set [2], the “Bk potentiation(%)” value was 102.5% and the Duration time was found to be 10. For the same compound, in data set [10], the effect length was 38 min and the “maximum hypotensive effect, reduction of MAP” value was 23±4.2 mmHg. In addition, the Ki in data set [3] (setting [12]) amounted to 399 nM. Further, in [4], the hypotensive effect length is 37 min and the “reduction … (maximum)” value is −19.17±4.36 mmHg. The Ki in data set [5] (setting [13]) was 1280 nM.
Take `CC[C@H](C)[C@H](NC(=O)[C@@H]1CCCN1C(=O)CNC(=O)[C@H](CC(=O)O)NC(=O)[C@@H]1CCC(=O)N1)C(=O)N1CCC[C@H]1C(=O)N1CCC[C@H]1C(=O)O` [EVASIN-7a, <EDGPIPP] ([pGlu]DGPIPP-OH; C-terminus assumed): in [1] (setting [11]), the inhibitory constant (Ki) was determined as 492 µM. In addition, in [2], the “Bk potentiation(%)” value was 41.8% and the Duration time is reported as 120. In data set [3] (setting [12]), the Ki is 70000 nM. Also, in data set [4], the hypotensive effect length result is reported as “more than 100 minutes” and the “reduction … (maximum)” value is 13.00±2.78 mmHg. In [5] (setting [13]), the inhibition constant (Ki) is 40000 nM.

As a reminder, the Ki is a measure of affinity in units of concentration, obtained from inhibition or displacement.
